# Measurements published in PMC5428058, “Local delivery of novel MRTF/SRF inhibitors prevents scar tissue formation in a preclinical model of fibrosis” (Scientific Reports, 2017).
# Columns and labels:
# Format in all cases: cell-based
# [1] = test system: rabbit conjunctival fibroblasts; test: fibroblast-populated collagen contraction assay (rabbit); settings: 7 days
# Description: We screened two candidate MRTF/SRF pathway inhibitors, CCG-222740 and CCG-203971, using detached three-dimensional fibroblast-populated collagen gels[56], [57]. Human or rabbit conjunctival fibroblasts were seeded in a collagen Type I matrix (First Link UK Ltd, Birmingham, UK) at a concentration of 0.7 × 10^4 cells/ml. The fibroblast-populated collagen gel mixture was cast into the wells of MatTek dishes (MatTek Corp, MI, USA). The gels were detached from the edges of the well and 2 ml of growth medium were added to each well with 5, 25, 50, 75, or 100 μM of CCG-222740 or CCG-203971 or 0.1% DMSO control. Digital photographs were obtained daily and lattice areas were measured using Image J software (http://rsb.info.nih.gov/ij/). The gel size at day 7 was assessed as a percentage of lattice area on day 0. Each experiment was performed as triplicate gels per condition and the experiment was repeated on three separate days.
# [2] = test system: human conjunctival fibroblasts; test: cell viability assay (CellTiter 96 Aqueous one solution); settings: for cell viability: 24 hours
# Description: Human conjunctival fibroblasts were plated at 6.25 × 10^3 cells/well in 96-well plates (Falcon, Fisher Scientific), and treated with 1, 3, 10, 30 or 100 μM of CCG-222740 or CCG-203971 or 0.1% DMSO control for 24 hours. 20 μl of CellTiter 96 Aqueous one solution (Promega) were then added to each well containing the samples in 100 μl of culture medium. The plate was incubated for 1 hour at 37 °C and the absorbance was measured at 490 nm on a SpectraMax Plus 384 spectrophotometer (Molecular Devices, California, USA). Each experiment was carried out in triplicates for each condition and the experiment was repeated three times.
# [3] = test system: ACTA2 and CTGF in human conjunctival fibroblasts; test: MRTF/SRF target gene expression by qRT-PCR (human); settings: 24 hours, 10% FCS
# Description: Human or rabbit conjunctival fibroblasts were plated at 1 × 10^5 cells/well in 6-well plates (Falcon, Fisher Scientific). The next day, the fibroblasts were treated with 5, 10, 25, or 50 μM of CCG-222740 or CCG-203971 or 0.1% DMSO control in DMEM +10% FCS for 24 hours. The fibroblasts were then lysed for RNA extraction using the Sigma RNA isolation kit (Sigma-Aldrich), according to the manufacturer’s instructions. Reverse transcription was carried out using the Transcriptor First Strand cDNA Synthesis Kit (Roche), according to the manufacturer’s instructions. qRT-PCR reactions were performed using SYBR green reagents (Life Technologies) on an HT7900 Fast Real-Time PCR system (Applied Biosystems). The human exonic primer sequences were: ACTA2, 5′-[…]-3′, 3′-[…]-5′; CTGF, 5′-CAGAGTGGAGCGCCTGTT-3′, 3′-CTGCAGGAGGCGTTGTCA-5′; GAPDH, 5′-[…]-3′, 3′-[…]-5′. The rabbit exonic primer sequences were ACTA2, 5′- […]-3′, 3′- […]-5′; GAPDH, 5′-CGAGACACGATGGTGAAGG-3′, 3′-[…]-5′. All mRNA values were normalised relative to that of GAPDH. Each experiment was carried out in triplicates for each treatment group and the experiment was repeated three times.
# [4] = test system: αSMA protein in human conjunctival fibroblasts; test: Western blot of αSMA protein expression; settings: 10 or 25 μM, 48 hours
# Description: Human conjunctival fibroblasts were lysed using 2x SDS sample buffer (100 mM Tris HCL ph6.8, 4% SDS, 20% glycerol, 200 mM dithiothreitol, 0.2% bromophenol blue). Equal amounts of protein were loaded onto and run on 4–12% NuPAGE Bis-Tris protein gels (Novex, Life Technologies). The gels were transferred onto nitrocellulose blotting membranes (Amersham, Life Sciences), and blocked in 3% non-fat milk in PBST (PBS 0.1% Tween) for 1 hour. The membranes were then incubated overnight at 4 °C in αSMA primary antibody (1:200, polyclonal rabbit, ab5694, Abcam). The next day, the membranes were washed three times for 10 minutes in PBST, and incubated for 1 hour at room temperature in anti-rabbit HRP (1:2500, Dako). The membranes were then washed three times for 10 minutes in PBST, treated with ECL solution (Amersham, Life sciences) for 5 minutes, and scanned on an Odyssey IR Imager (LI-COR).
smiles,measurement,setting,value
O=C(Nc1ccc(Cl)cc1)C1CN(C(=O)c2cccc(-c3ccco3)c2)CC(F)(F)C1 (stereo not shown) [CCG-222740],"decrease of collagen matrix contraction, comparison",[1],more effective at decreasing collagen matrix contraction than CCG-203971
same,cell viability,[2]; 10 μM,100%
same,cell viability,[2]; 30 μM,88%
same,cell viability,[2]; 100 μM,85%
same,"cytotoxicity, comparison",[2]; human conjunctival fibroblasts,less cytotoxic than CCG-203971
same,"expression of MRTF/SRF target genes ACTA2 and CTGF, comparison",[3],more potent inhibitor of expression
same,"αSMA protein expression, comparison",[4],more potent than CCG-203971 at decreasing αSMA protein expression
